Values of other authors, collected in patent US20260048046A1, “METHOD FOR IMPROVING GROWTH PERFORMANCE IN FEEDLOT CATTLE” (Elanco US Inc., priority 2022, published 2026).
Where two headings read alike, the source gives them in different places.

Tested on: cattle
Conditions: zilpaterol 8.3 mg/kg diet DM, Holland et al. (2010), cited from earlier work

## CC(C)NC1CCn2c(=O)[nH]c3cccc(c32)C1O (centres unmarked) [zilpaterol]
3 d removal prior to harvest
  Difference in HCW between zilpaterol fed and non-treated cattle: 14 kg
10 d removal prior to harvest
  Difference in HCW between zilpaterol fed and non-treated cattle: 17 kg
17 d removal prior to harvest
  Difference in HCW between zilpaterol fed and non-treated cattle: 5 kg
24 d removal prior to harvest
  Difference in HCW between zilpaterol fed and non-treated cattle: 6 kg
P≥0.14
  Final and carcass-adjusted final BW, effect of feeding zilpaterol: not affected
